Laboratory results taken from patent US20060020110A1, “Synthetic peptides that bind to the hepatitis B virus core and E antigens” (priority 2000, published 2006).

Legend:
HBcAg [1] = target: T1, HBcAg (Hepatitis B virus genotype D subtype ayw, UniProt P03146); conditions: for OD at 490 nm, bound peptide SEQ. ID. No. 74: HBcAg coated 1 μg/ml, 5 μg SEQ. ID. No. 74 + 5 μg HBcAg peptide, no inhibitor OD 1.454; for Std. Deviation from the mean: deviation of the OD from the mean OD of all peptides; for Effect on binding of peptide SEQ. ID. No. 74 to HBcAg (in words): 5 μg HBcAg peptide + 5 μg SEQ. ID. No. 74, triplicate
T1 sequence (P03146 whole entry, the tested form may be a part): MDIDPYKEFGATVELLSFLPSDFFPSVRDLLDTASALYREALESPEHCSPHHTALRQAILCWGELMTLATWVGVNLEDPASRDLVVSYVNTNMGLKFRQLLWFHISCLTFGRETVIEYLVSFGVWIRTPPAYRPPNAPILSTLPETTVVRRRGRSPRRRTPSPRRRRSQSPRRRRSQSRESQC
Experimental: In this experiment, microplates were coated overnight with 1 μg/ml HBcAg and, subsequently, a 100 μl mixture containing 5 μg of the peptide […] […] The HBcAg peptides were approximately 20 amino acids in length and corresponded to regions of HBcAg spanning amino acid residues 11-183. The experiment was performed in triplicate.

HBcAg [2] = target: T1, HBcAg; conditions: peptide added prior to addition of mAb; uninhibited control mean OD 0.871
From the text: (§1) One approach to rational drug design involves sequential amino acid deletion of a known binding partner starting from either the amino or carboxy termini. Amino-terminal deletions of the binding partners of SEQ. ID. Nos. 5 and 17 were made and these peptide fragments were joined to a support and analyzed for the ability to bind HBcAg. […] ID. […] The amino-terminal deletions of the peptide of SEQ. ID. […] The amino-terminal deletion products of the peptide of SEQ. ID. […] ID.
Variations of the characterization assays described above include competitive binding assays. […] Initial experiments were conducted by contacting binding partner to HBcAg prior to introducing the antibody. […] ID. […] ID. […] ID. […] ID. […] ID. […] ID.

HBcAg [3] = target: T1, HBcAg; conditions: for OD at 490 nm, HBcAg binding to support-bound amino terminal deletion peptides: HBcAg added at 5 μg/ml; for OD at 405 nm to indicated antigen: HBcAg 0.2 μg/well / OD at 405 nm to indicated antigen: HBcAg 2 μg/well: support-bound peptide
From the text: as §1
To determine whether a candidate binding partner bound to HBcAg and/or HbeAg, a multimeric support-based binding assay was performed. Accordingly, synthetic peptides corresponding to the VH and VL domains of the sequenced mAbs were passively adsorbed to 96 well microplates in serial dilutions starting at 200 μg/ml. The peptide coated plates were then incubated with HBcAg and HBeAg serially diluted in PBS-GT. The amount of HBcAg and HBeAg bound by the peptides was then detected using a mAb directed to an epitope common to HBcAg and HBeAg (See Sällberg et al., J General Virology 74:1335-1340 (1993), herein expressly incorportaed by reference in its entirety) diluted 1:3000 in PBS-GT. The quantity of bound mAb was determined by addition by peroxidase labeled rabbit anti-mouse IgG (P260, Dako A S, Denmark). The plates were developed by incubation with ortho-phenylene-diamine (Sigma) and the absorbance at 492 nm was evaluated.
The converse of an aspect of this experiment was also performed. That is, various dilutions of support-bound binding partners (SEQ. ID. Nos. 5, 16, 17, 28, and 29) were contacted with 10 μg/ml of HBcAg and binding was evaluated. ID.

| Substance | OD at 490 nm, bound peptide SEQ. ID. No. 74 (HBcAg [1]) | Std. Deviation from the mean (HBcAg [1]) | OD at 490 nm, HBcAg binding to support-bound amino terminal deletion peptides (HBcAg [3]) | also measured |
| --- | --- | --- | --- | --- |
| ALESPEHCSPHHTALRQAIL [SEQ. ID. No. 99] | 1.372 | 0.665 |  |  |
| ASGYIFTS [SEQ. ID. No. 50] |  |  | 0.407 | OD at 490 nm, mAb 4-2 binding to HBcAg (HBcAg [2]): 0.920 |
| ASQSVSTSSYSYMHWY [SEQ. ID. No. 56] |  |  | 0.324 |  |
| ASVKLSCKASGYIFTS [SEQ. ID. No. 42] |  |  | 3.219 | OD at 490 nm, mAb 4-2 binding to HBcAg (HBcAg [2]): 0.207 |
| ATVELLSFLPSDFFPSVRDL [SEQ. ID. No. 96] | 1.387 | 0.696 |  |  |
| AYRPPNAPILSTLPETTVVR [SEQ. ID. No. 108] | 1.564 | 1.052 |  |  |
| CKASGYIFTS [SEQ. ID. No. 48] |  |  | 0.255 | OD at 490 nm, mAb 4-2 binding to HBcAg (HBcAg [2]): 0.851 |
| CKASGYIFTSYDIDWVRQTP (Synthetically prepared amino acid sequence) [Peptide 3] |  |  |  | OD at 405 nm to indicated antigen: HBcAg 0.2 μg/well (HBcAg [3]): 0.187; OD at 405 nm to indicated antigen: HBcAg 2 μg/well (HBcAg [3]): 0.525 |
| CRASQSVSTSSYSYMHWY [SEQ. ID. No. 54] |  |  | 1.415 |  |
| CWGELMTLATWVGVNLEDPA [SEQ. ID. No. 101] | 1.395 | 0.712 |  |  |
| ELTRLTSEDSAVYFCARGDY (Synthetically prepared amino acid sequence) [Peptide 9] |  |  |  | OD at 405 nm to indicated antigen: HBcAg 0.2 μg/well (HBcAg [3]): 0.195; OD at 405 nm to indicated antigen: HBcAg 2 μg/well (HBcAg [3]): 0.574 |
| GASVKLSCKASGYIFTS [SEQ. ID. No. 41] |  |  | 2.863 | OD at 490 nm, mAb 4-2 binding to HBcAg (HBcAg [2]): 0.205 |
| GRETVIEYLVSFGVWIRTPP [SEQ. ID. No. 106] | 0.832 | −0.423 |  |  |
| GYIFTS [SEQ. ID. No. 52] |  |  | 0.414 | OD at 490 nm, mAb 4-2 binding to HBcAg (HBcAg [2]): 0.903 |
| KASGYIFTS [SEQ. ID. No. 49] |  |  | 0.237 | OD at 490 nm, mAb 4-2 binding to HBcAg (HBcAg [2]): 0.866 |
| KLSCKASGYIFTS [SEQ. ID. No. 45] |  |  | 3.694 | OD at 490 nm, mAb 4-2 binding to HBcAg (HBcAg [2]): 0.808 |
| KPGASVKLSCKASGYIFTS [SEQ. ID. No. 39] |  |  | 1.337 | OD at 490 nm, mAb 4-2 binding to HBcAg (HBcAg [2]): 0.202 |
| LDTASALYREALESPEHCSP [SEQ. ID. No. 98] | 1.589 | 1.103 |  |  |
| LSCKASGYIFTS [SEQ. ID. No. 46] |  |  | 0.565 | OD at 490 nm, mAb 4-2 binding to HBcAg (HBcAg [2]): 0.777 |
| LVTVSAAKTTPPSVYPLVPV (Synthetically prepared amino acid sequence) [Peptide 35] |  |  |  | OD at 405 nm to indicated antigen: HBcAg 0.2 μg/well (HBcAg [3]): 0.198; OD at 405 nm to indicated antigen: HBcAg 2 μg/well (HBcAg [3]): 0.59 |
| LWFHISCLTFGRETVIEYLV [SEQ. ID. No. 105] | 1.129 | .175 |  |  |
| PGASVKLSCKASGYIFTS [SEQ. ID. No. 40] |  |  | 1.722 | OD at 490 nm, mAb 4-2 binding to HBcAg (HBcAg [2]): 0.182 |

| Substance | OD at 490 nm, bound peptide SEQ. ID. No. 74 (HBcAg [1]) | Std. Deviation from the mean (HBcAg [1]) | OD at 490 nm, HBcAg binding to support-bound amino terminal deletion peptides (HBcAg [3]) | also measured |
| --- | --- | --- | --- | --- |
| PSPRRRRSQSPRRRRSQSRESQC [SEQ. ID. No. 111] | 0.678 | −0.734 |  |  |
| QLNSLTSEDSAVYYCARGKG (Synthetically prepared amino acid sequence) [Peptide 32] |  |  |  | OD at 405 nm to indicated antigen: HBcAg 0.2 μg/well (HBcAg [3]): 0.121; OD at 405 nm to indicated antigen: HBcAg 2 μg/well (HBcAg [3]): 0.528 |
| QSVSTSSYSYMHWY [SEQ. ID. No. 58] |  |  | 0.282 |  |
| RASQSVSTSSYSYMHWY [SEQ. ID. No. 55] |  |  | 0.429 |  |
| RRGRSPRRRTPSPRRRRSQS [SEQ. ID. No. 110] | 0.732 | −0.625 |  |  |
| SCKASGYIFTS [SEQ. ID. No. 47] |  |  | 0.297 | OD at 490 nm, mAb 4-2 binding to HBcAg (HBcAg [2]): 0.784 |
| SCRASQSVSTSSYSYMHWY [SEQ. ID. No. 53] |  |  | 1.452 |  |
| SDFFPSVRDLLDTASALYRE [SEQ. ID. No. 97] | 1.576 | 1.077 |  |  |
| SGYIFTS [SEQ. ID. No. 51] |  |  | 0.389 | OD at 490 nm, mAb 4-2 binding to HBcAg (HBcAg [2]): 0.887 |
| SQSVSTSSYSYMHWY [SEQ. ID. No. 57] |  |  | 0.310 |  |
| SRDLVVSYVNTNMGLKFRQL [SEQ. ID. No. 103] | 0.386 | −1.323 |  | Effect on binding of peptide SEQ. ID. No. 74 to HBcAg (in words) (HBcAg [1]): consistently reduced the binding |
| SSYSYMHWY [SEQ. ID. No. 63] |  |  | 0.311 |  |
| STLPETTVVRRRGRSPRRRT [SEQ. ID. No. 109] | 0.811 | −0.466 |  |  |
| STSSYSYMHWY [SEQ. ID. No. 61] |  |  | 0.372 |  |
| SVSTSSYSYMHWY [SEQ. ID. No. 59] |  |  | 0.305 |  |
| SYMHWY [SEQ. ID. No. 65] |  |  | 0.218 |  |
| TNMGLKFRQLLWFHISCLTF [SEQ. ID. No. 104] | 0.058 | −1.984 |  | Effect on binding of peptide SEQ. ID. No. 74 to HBcAg (in words) (HBcAg [1]): consistently reduced the binding |
| TSSYSYMHWY [SEQ. ID. No. 62] |  |  | 0.317 |  |
| VSTSSYSYMHWY [SEQ. ID. No. 60] |  |  | 0.369 |  |
| WVGVNLEDPASRDLVVSYVN [SEQ. ID. No. 102] | 1.411 | 0.744 |  |  |
| YDIDWVRQTPEQGLEWIGWI (Synthetically prepared amino acid sequence) [Peptide 4] |  |  |  | OD at 405 nm to indicated antigen: HBcAg 0.2 μg/well (HBcAg [3]): 0.202; OD at 405 nm to indicated antigen: HBcAg 2 μg/well (HBcAg [3]): 0.551 |
| YSYMHWY [SEQ. ID. No. 64] |  |  | 0.245 |  |
